Reference: paper PMC8998978, “Toward a Treatment of Cancer: Design and In Vitro/In Vivo Evaluation of Uncharged Pyrazoline Derivatives as a Series of Novel SHP2 Inhibitors” (International Journal of Molecular Sciences, 2022)

Key:
BEL-7402 cells = experiment: Cell viability assay (SRB); type: cell-based; details: Homo sapiens, BEL-7402, 72 h
Source text: (§1) Human colon cancer cell line HCT116, hepatoma cell lines HepG2 and BEL-7402, lung adenocarcinoma cell lines NCI-H1975 and 95-D, pancreatic cancer cell line Panc-1, breast cancer cell line MDA-MB-231, NSCLC cell line NCI-H1299, ovarian cancer cell line SK-OV-3, leukemia cell line K562, glioma cell line U87, colon epithelial cell line NCM460 and umbilical vein endothelial cell line HUVEC were purchased from the Institute of Biochemistry and Cell Biology, Chinese Academy of Sciences (Shanghai, China). HCT116 cell line was cultured in McCoy’s 5A medium (Hyclone, Logan, UT, USA). HepG2, 95-D, Panc-1, MDA-MB-231, BEL-7402, SK-OV-3, U87 and NCM460 cell lines were cultured in DMEM-High glucose medium (Hyclone, Logan, UT, USA). NCI-H1975, NCI-H1299 and HUVEC cell lines were cultured in RPMI 1640 medium (Hyclone, Logan, UT, USA). K562 cell line was cultured in IMDM medium (Hyclone, Logan, UT, USA). All of them were incubated in the medium with 10% fetal bovine serum (PAN, Adenbach, Bavaria, Germany) and 1% penicillin-streptomycin (Gibco-Invitrogen, Grand Island, NY, USA) under a humidified atmosphere of 5% CO2 at 37 °C.
(§2) The inhibition rate of cell viability was detected by 3-(4,5-dimethyl-2-thiazolyl)-2,5-diphenyl-2-H-tetrazolium bromide (MTT, Solarbio, Beijing, China) or Sulforhodamine B (SRB, Sigma-Aldrich, St. Louis, MO, USA) assay. In MTT assay, the suspension cells were inoculated in 96-well plates at the density of 5000 cells per well, and incubated with 4o at indicated concentrations dissolved in DMSO for 72 h. Each well was incubated with MTT solution (5 mg/mL) at 37 °C for 4 h, DMSO was added and incubated overnight at 37 °C. The absorbance at 570 nm was measured in a multimode reader (Berthold Technologies, Germany). In SRB assay, adherent cells were seeded in 96-well plates (5000 cells per well). After 24 h, the cells were treated with 4o for 72 h, and then fixed with precooling 10% TCA solution at 4 °C for 1 h. After washing and drying, SRB staining was added for 15 min, and then washed and dried by 1% acetic acid. Finally, Tris–HCl solution was added, and the absorbance at 515 nm was detected in a multimode reader (Berthold Technologies, Germany).

HepG2 cells = experiment: Cell viability assay (SRB); type: cell-based; details: Homo sapiens, HepG2, 72 h
Source text: as §1, §2

MDA-MB-231 cells = experiment: Cell viability assay (SRB); type: cell-based; details: Homo sapiens, MDA-MB-231, 72 h
Source text: as §1, §2

NCI-H1299 cells = experiment: Cell viability assay (SRB); type: cell-based; details: Homo sapiens, NCI-H1299, 72 h
Source text: as §1, §2

Panc-1 cells = experiment: Cell viability assay (SRB); type: cell-based; details: Homo sapiens, Panc-1, 72 h
Source text: as §1, §2

SK-OV-3 cells = experiment: Cell viability assay (SRB); type: cell-based; details: Homo sapiens, SK-OV-3, 72 h
Source text: as §1, §2

U87 cells = experiment: Cell viability assay (SRB); type: cell-based; details: Homo sapiens, U-87 MG, U87, 72 h
Source text: as §1, §2

K562 cells = experiment: Cell viability assay (MTT); type: cell-based; details: Homo sapiens, K562, 72 h
Source text: as §1, with “All of them were incubated in the medium with 10% fetal bovine serum (PAN, Adenbach, Bavaria, Germany) and 1% penicillin-streptomycin (Gibco-Invitrogen, Grand Island, NY, USA) under a humidified atmosphere of 5% CO2 at 37 °C.” left out
(§3) The inhibition rate of cell viability was detected by 3-(4,5-dimethyl-2-thiazolyl)-2,5-diphenyl-2-H-tetrazolium bromide (MTT, Solarbio, Beijing, China) or Sulforhodamine B (SRB, Sigma-Aldrich, St. Louis, MO, USA) assay. […] The absorbance at 570 nm was measured in a multimode reader (Berthold Technologies, Germany). […] Finally, Tris–HCl solution was added, and the absorbance at 515 nm was detected in a multimode reader (Berthold Technologies, Germany).

HUVEC cells = experiment: Cell viability assay (SRB), normal cells; type: cell-based; details: Homo sapiens, 72 h
Source text: as §1, with “All of them were incubated in the medium with 10% fetal bovine serum (PAN, Adenbach, Bavaria, Germany) and 1% penicillin-streptomycin (Gibco-Invitrogen, Grand Island, NY, USA) under a humidified atmosphere of 5% CO2 at 37 °C.” left out
as §3

NCM460 cells = experiment: Cell viability assay (SRB), normal cells; type: cell-based; details: Homo sapiens, 72 h
Source text: as §1, with “All of them were incubated in the medium with 10% fetal bovine serum (PAN, Adenbach, Bavaria, Germany) and 1% penicillin-streptomycin (Gibco-Invitrogen, Grand Island, NY, USA) under a humidified atmosphere of 5% CO2 at 37 °C.” left out
as §3

human cancer cells = experiment: Cell viability assay, panel of cancer cells; type: cell-based; details: 11 cancer cell lines, 72 h, read-out: IC50 values against cancer cells (range over the panel)
Source text: as §1, with “All of them were incubated in the medium with 10% fetal bovine serum (PAN, Adenbach, Bavaria, Germany) and 1% penicillin-streptomycin (Gibco-Invitrogen, Grand Island, NY, USA) under a humidified atmosphere of 5% CO2 at 37 °C.” left out
as §3

HCT116 cells = experiment: Colony formation assay; type: cell-based, human; details: 4o 0.625, 1.25 and 2.5 μM, 8 days
Protocol: HCT116 cells were seeded in 6-well plates at a density of 500 cells per well. After 24 h, cells were treated with different concentrations of 4o for 8 days. Subsequently, the culture medium was removed and the cells were fixed with methanol for 3 min, and stained with crystal violet (Solarbio, Beijing, China) for 15 min. Finally, colonies were counted and photographed.

Acute toxicity assay = type: in vivo; details: for Mortality: 14 days observation
Protocol: (§4) In acute toxicity assay, 18 female Kunming mice (Jinan Pengyue Experimental Animal Breeding Co., Ltd., Jinan, China), 18–22 g of weight, were used. The mice were randomly divided into three groups (n = 6), and treated with vehicle (0.5% CMC-Na solution) or 4o (300, 2000 mg/kg) by gavage once. The body weight, toxicity effect, general behavior and mortality of mice were monitored within 14 days after 4o treatment. In subacute toxicity assay, 10 male and 10 female Kunming mice (Jinan Pengyue Experimental Animal Breeding Co., Ltd., Jinan, China), 18–22 g of weight, were used. The mice were randomly divided into two groups with 5 males and 5 females, and were orally treated with vehicle (0.5% CMC-Na solution) or 4o (1000 mg/kg) once a day for 28 days. […]. After 28 days of treatment, the mice were anaesthetized with isoflurane and killed by decapitation. The heart, liver, spleen and kidney tissues were collected, and histologically analyzed by H&E staining.

Subacute toxicity assay = type: in vivo
Protocol: as §4

Q: Which IC50 (BEL-7402 cells) does the source give for `CCOc1ccc(Oc2ccc(C3=NN(C4=NC(=O)CS4)C(c4cc(O)c(O)c(Br)c4Br)C3)cc2)cc1` (stereo not drawn) [Compound 4o, 2-(5-(2,3-dibromo-4,5-dihydroxyphenyl)-3-(4-(4-ethoxyphenoxy)phenyl)-4,5-dihydro-1H-pyrazol-1-yl)thiazol-4(5H)-one] here?
A: 7.38 ± 0.31 µM

Q: What about the IC50 (HepG2 cells) of the same molecule?
A: 3.8 ± 0.22 µM

Q: And the IC50 (MDA-MB-231 cells)?
A: 6.34 ± 0.37 µM

Q: What about the IC50 (NCI-H1299 cells) of the same molecule?
A: 7.42 ± 0.43 µM

Q: What about the IC50 (Panc-1 cells) of the same molecule?
A: 6.3 ± 0.5 µM

Q: And the IC50 (SK-OV-3 cells)?
A: 8.44 ± 0.45 µM

Q: What about the IC50 (U87 cells) of the same molecule?
A: 10.2 ± 0.39 µM

Q: What about the IC50 (K562 cells) of the same molecule?
A: 9.6 ± 0.68 µM

Q: And the IC50 (HUVEC cells)?
A: 28.3 ± 1.63 µM

Q: And the IC50 (NCM460 cells)?
A: 27.1 ± 0.66 µM

Q: What about the IC50 (human cancer cells) of the same molecule?
A: 2.64 to 10.2 µM

Q: And the “Colony formation of HCT116 cells” value (HCT116 cells)?
A: significantly inhibited the colony formation

Q: What about the “Body Weight (g) Day 0” value (Acute toxicity assay; 300 mg/kg single oral dose) of the same molecule?
A: 24.41 ± 0.64 g

Q: What about the “Body Weight (g) Day 7” value (Acute toxicity assay; 300 mg/kg single oral dose) of the same molecule?
A: 28.78 ± 0.78 g

Q: What about the “Body Weight (g) Day 14” value (Acute toxicity assay; 300 mg/kg single oral dose) of the same molecule?
A: 30.75 ± 0.99 g

Q: What about the Mortality (Acute toxicity assay; 300 mg/kg single oral dose) of the same molecule?
A: 0/6

Q: What about the “Body Weight (g) Day 0” value (Acute toxicity assay; 2000 mg/kg single oral dose) of the same molecule?
A: 25.19 ± 1.45 g

Q: And the “Body Weight (g) Day 7” value (Acute toxicity assay; 2000 mg/kg single oral dose)?
A: 30.51 ± 0.88 g

Q: And the “Body Weight (g) Day 14” value (Acute toxicity assay; 2000 mg/kg single oral dose)?
A: 31.43 ± 1.09 g

Q: And the Mortality (Acute toxicity assay; 2000 mg/kg single oral dose)?
A: 0/6

Q: And the “Body Weight (g) Day 0” value (Subacute toxicity assay; 1000 mg/kg orally once a day)?
A: 19.08 ± 0.95 g

Q: And the “Body Weight (g) Day 7” value (Subacute toxicity assay; 1000 mg/kg orally once a day)?
A: 27.52 ± 1.77 g

Q: And the “Body Weight (g) Day 14” value (Subacute toxicity assay; 1000 mg/kg orally once a day)?
A: 33.41 ± 3.49 g

Q: And the “Body Weight (g) Day 21” value (Subacute toxicity assay; 1000 mg/kg orally once a day)?
A: 35.49 ± 4.52 g

Q: And the “Body Weight (g) Day 28” value (Subacute toxicity assay; 1000 mg/kg orally once a day)?
A: 36.63 ± 4.84 g

Q: What about the Mortality (Subacute toxicity assay; 1000 mg/kg orally once a day, 28 days) of the same molecule?
A: 0/10

Q: What about the “H&E staining of heart, liver, spleen and kidney” value (Subacute toxicity assay; 1000 mg/kg orally, 28 days) of the same molecule?
A: no significant change in the cell morphology
